Assay results: US8273775B2, “Non-steroidal brassinosteroid mimetic” (priority 2006, dated 2012)

Tested on: gene expression in Col-0 seedling shoots
Assay: Microarray analysis (ATH1 Affymetrix) after BL or abrasin treatment
Assay type: in vivo, Arabidopsis
Description: FIG. 14: Clustering of gene expression profiles by QT-clust analysis. Clusters illustrating the major patterns of the data sets. Points: BIK-30: 30 μM abrasin 30 min; BL-30: 1 μM brassinolide 30 min; DMSO-30: control DMSO 30 min; BIK-120: 30 μM abrasin 120 min; BL-120: 1 μM brassinolide 120 min; DMSO-120: control DMSO 120 min.
Col-0 seeds were germinated vertically on ½ MS medium for 7 days under 16 h light/8 h dark cycles. The seedlings were overlaid with liquid ½ MS medium containing 1 μM brassinolide (BL, Fuji Chemical Industries, Ltd., Toyama, Japan), 30 μM abrasin (BIK, ChemBridge Corporation) and DMSO and treated for 30 and 120 min. The shoot parts were collected for RNA isolation. All sampling points were performed in three independent experiments. RNA was extracted using RNeasy kit (Qiagene). […] total RNA per array was used to hybridise the ATH1 Affymetrix Arabidopsis arrays according to standard procedure. The overrepresentation analyses were performed using BiNGO software (Maere et al., 2005).
We performed a microarray analysis using the Arabidopsis whole genome chip (Affymetix) to determine whether abrasin activated the expression of BR-inducible genes at transcriptional level. Wild-type Col-0 seedlings were exposed to 1 μM BL, 30 μM ABRASIN and DMSO (mock-treatment) for two time points (30 min and 120 min) and the shoot parts were collected for RNA isolation. The analysis of the variance of the normalized gene expression data took in account the variability parameters affecting the expression level: type of hormone treatment, duration of treatment and the interaction between these two.

## CC(C)[C@H](C)[C@@H](O)[C@H](O)[C@@H](C)[C@H]1CC[C@H]2[C@@H]3COC(=O)[C@H]4C[C@H](O)[C@H](O)C[C@]4(C)[C@H]3CC[C@]12C [BL, brassinolide, reference compound]
1 μM BL, 30 μM ABRASIN
  expression of BR biosynthesis genes (CPD, DWF4, BR6OX2), Cluster 1: down-regulated
  expression of genes involved in the auxin pathway (IAA29, IAA2): significantly down-regulated
1 μM BL, 30 μM ABRASIN, 30 and 120 min
  induction of early auxin-inducible SAUR family genes, Cluster 3: induced by BL as faster as 30 min treatment
30 min
  Fold-change AT1G04330 expressed protein: 1.04
  Fold-change AT1G05470 endonuclease/exonuclease/phosphatase family protein: 1.04
  Fold-change AT1G06520 Encodes a membrane associated mitochondrial localized protein: 1.57
  Fold-change AT1G06570 4-hydroxyphenylpyruvate dioxygenase (HPD): 0.87
  Fold-change AT1G10550 xyloglucan:xyloglucosyl transferase: 1.34
  Fold-change AT1G12710 F-box family protein: 1.26
  Fold-change AT1G12750 rhomboid family protein: 1.15
  Fold-change AT1G14130 2-oxoglutarate-dependent dioxygenase: 1.26
  Fold-change AT1G14700 purple acid phosphatase: 0.73
  Fold-change AT1G16640 transcriptional factor B3 family protein: 1.02
  Fold-change AT1G17230 leucine-rich repeat family protein: 1.08
  Fold-change AT1G18020; AT1G17990 [AT1G18020, 12-oxophytodienoate reductase,: 0.80
  Fold-change AT1G19320 pathogenesis-related thaumatin family protein: 0.81
  Fold-change AT1G20350 mitochondrial import inner membrane translocase subunit: 0.99
  Fold-change AT1G21050 expressed protein: 0.72
  Fold-change AT1G21760 F-box family protein: 1.02
  Fold-change AT1G22360 UDP-glucoronosyl/UDP-glucosyl transferase family protein: 0.94
  Fold-change AT1G23080 auxin efflux carrier protein (PIN7): 0.89
  Fold-change AT1G26800 zinc finger (C3HC4-type RING finger) family protein,: 1.51
  Fold-change AT1G27730 zinc finger (C2H2 type) family protein: 0.18
  Fold-change AT1G28130 encodes an IAA-amido synthase: 0.85
  Fold-change AT1G28190 expressed protein: 0.66
  Fold-change AT1G28480 glutaredoxin family protein: 0.99
  Fold-change AT1G31040 zinc-binding protein-related: 0.88
  Fold-change AT1G31310 hydroxyproline-rich glycoprotein family protein: 0.85
  Fold-change AT1G31770 ABC transporter family protein: 0.99
  Fold-change AT1G32190 expressed protein: 1.00
  Fold-change AT1G32690 expressed protein: 0.92
  Fold-change AT1G36940 expressed protein: 0.89
  Fold-change AT1G49780 U-box domain-containing protein: 0.53
  Fold-change AT1G53870; AT1G53890 [AT1G53870, expressed protein: 0.89
  Fold-change AT1G54050 17.4 kDa class III heat shock protein (HSP17.4-CIII): 1.09
  Fold-change AT1G54200 expressed protein: 1.16
  Fold-change AT1G55920 serine O-acetyltransferase: 1.04
  Fold-change AT1G57560 myb family transcription factor (MYB50): 1.04
  Fold-change AT1G59590 expressed protein: 0.95
  Fold-change AT1G59660 nucleoporin family proteinmily: 1.67
  Fold-change AT1G62300 WRKY family transcription factor: 0.63
  Fold-change AT1G63050 membrane bound O-acyl transferase (MBOAT) family protein: 0.98
  Fold-change AT1G66160 U-box domain-containing protein,: 1.10
  Fold-change AT1G66890 expressed protein: 0.72
  Fold-change AT1G68330 expressed protein: 0.90
  Fold-change AT1G68810 basic helix-loop-helix (bHLH) family protein: 1.11
  Fold-change AT1G69160 expressed protein: 1.06
  Fold-change AT1G70990 proline-rich family protein: 1.59
  Fold-change AT1G71030 Encodes a putative myb family transcription factor: 0.84
  Fold-change AT1G72060 expressed protein: 0.96
  Fold-change AT1G72180 leucine-rich repeat transmembrane protein kinase: 0.87
  Fold-change AT1G72800 nuM1-related, contains: 1.08
  Fold-change AT1G75270 dehydroascorbate reductase: 1.27
  Fold-change AT1G75500 nodulin MtN21 family protein: 0.91
  Fold-change AT1G76240 expressed protein,: 0.57
  Fold-change AT1G76410 zinc finger (C3HC4-type RING finger): 1.61
  Fold-change AT1G79110 expressed protein: 1.09
  Fold-change AT1G79630 protein phosphatase 2C family protein: 0.78
  Fold-change AT1G80440 kelch repeat-containing F-box family protein: 1.71
  Fold-change AT2G01300 expressed protein: 1.16
  Fold-change AT2G01990 expressed protein,: 0.91
  Fold-change AT2G04240 zinc finger (C3HC4-type RING finger) family protein: 1.46
  Fold-change AT2G05540 glycine-rich protein: 0.92
  Fold-change AT2G12290; AT4G19700 [AT2G12290, expressed protein]; [AT4G19700, expressed protein]: 0.80
  Fold-change AT2G18010 auxin-responsive family protein (SAUR10): 1.60
  Fold-change AT2G19800 expressed protein: 1.20
  Fold-change AT2G22860 phytosulfokines 2 (PSK2): 0.86
  Fold-change AT2G23180 cytochrome P450, putative: 1.10
  Fold-change AT2G23320 WRKY family transcription factor: 0.86
  Fold-change AT2G26530 expressed protein: 0.41
  Fold-change AT2G26710 cytochrome p450 family (BAS1): 1.56
  Fold-change AT2G28510 Dof-type zinc finger domain-containing protein: 0.94
  Fold-change AT2G29340 short-chain dehydrogenase/reductase (SDR) family protein: 0.85
  Fold-change AT2G29990 pyridine nucleotide-disulphide oxidoreductase family protein: 0.94
  Fold-change AT2G30070 potassium transporter (KUP1): 0.81
  Fold-change AT2G31230 encodes a member of the ERF (ethylene response factor): 1.66
  Fold-change AT2G34650 protein kinase PINOID (PID): 1.54
  Fold-change AT2G36220 expressed protein: 1.18
  Fold-change AT2G37590 Dof-type zinc finger domain-containing protein: 0.90
  Fold-change AT2G38470 WRKY family transcription factor: 0.38
  Fold-change AT2G39710 aspartyl protease family protein: 1.25
  Fold-change AT2G40340; AT2G40350 [AT2G40340, encodes a member of the DREB subfamily A-2 of ERF/AP2: 1.16
  Fold-change AT2G41250 haloacid dehalogenase-like hydrolase family protein: 0.91
  Fold-change AT2G41640 expressed protein: 0.84
  Fold-change AT2G42280 basic helix-loop-helix (bHLH) family protein: 0.98
  Fold-change AT2G43060 expressed protein, similar to cDNA bHLH transcription factor: 0.25
  Fold-change AT2G43280 far-red impaired responsive family protein: 0.84
  Fold-change AT2G43290 calmodulin-like protein (MSS3): 1.24
  Fold-change AT2G44130 kelch repeat-containing F-box family protein: 1.63
  Fold-change AT2G44500 expressed protein: 1.16
  Fold-change AT2G45210 auxin-responsive protein-related: 0.77
  Fold-change AT2G45680 TCP family transcription factor: 0.91
  Fold-change AT2G46225 Encodes a subunit of the WAVE complex: 0.97
  Fold-change AT2G47440 DNAJ heat shock N-terminal domain-containing protein: 1.31
  Fold-change AT3G04210 disease resistance protein (TIR-NBS class), putative,: 0.89
  Fold-change AT3G09920 phosphatidylinositol-4-phosphate 5-kinase family protein: 0.94
  Fold-change AT3G12920 expressed protein: 0.81
  Fold-change AT3G13040 myb family transcription factor: 0.84
  Fold-change AT3G13510 expressed protein: 1.06
  Fold-change AT3G13980 expressed protein: 0.71
  Fold-change AT3G14370 protein kinase family protein: 2.13
  Fold-change AT3G14560 expressed protein: 0.81
  Fold-change AT3G16570 rapid alkalinization factor (RALF) family protein: 0.88
  Fold-change AT3G17860 expressed protein: 1.08
  Fold-change AT3G18830 polyol/cyclitol/monosaccharide-H+-symporte: 1.11
  Fold-change AT3G19380 U-box domain-containing protein: 0.70
  Fold-change AT3G23030 auxin-responsive protein/indoleacetic acid-induced protein 2 (IAA2): 0.66
  Fold-change AT3G23550 MATE efflux family protein: 0.84
  Fold-change AT3G25710 basic helix-loop-helix (bHLH) family protein: 1.06
  Fold-change AT3G25900 homocysteine S-methyltransferase 1 (HMT-1): 1.17
  Fold-change AT3G26910 hydroxyproline-rich glycoprotein family protein: 1.08
  Fold-change AT3G30180 cytochrome p450 enzyme: 0.31
  Fold-change AT3G46880 expressed protein,: 0.84
  Fold-change AT3G47800 aldose 1-epimerase family protein: 1.06
  Fold-change AT3G48970 copper-binding family protein: 0.97
  Fold-change AT3G49810 U-box domain-containing protein: 0.89
  Fold-change AT3G50650 scarecrow-like transcription factor 7 (SCL7): 1.17
  Fold-change AT3G50660 steroid 22-alpha-hydroxylase (CYP90B1) (DWF4): 0.47
  Fold-change AT3G50750 brassinosteroid signalling positive regulator-related (BEH1): 0.99
  Fold-change AT3G52490 heat shock protein-related: 0.93
  Fold-change AT3G53810 lectin protein kinase: 0.80
  Fold-change AT3G54950 patatin-related,: 0.86
  Fold-change AT3G55120 chalcone-flavanone isomerase: 0.98
  Fold-change AT3G55150 exocyst subunit EXO70 family protein: 0.75
  Fold-change AT3G55840 expressed protein: 1.06
  Fold-change AT3G61460 zinc finger (C3HC4-type RING finger) family protein (BRH1): 0.78
  Fold-change AT3G63300 expressed protein: 1.02
  Fold-change AT4G01680 myb family transcription factor (MYB55): 0.51
  Fold-change AT4G02410 lectin protein kinase family protein: 0.66
  Fold-change AT4G08040 1-aminocyclopropane-1-carboxylate synthase, putative: 0.13
  Fold-change AT4G09460 myb family transcription factor: 1.30
  Fold-change AT4G12390 invertase/pectin methylesterase inhibitor family protein: 0.96
  Fold-change AT4G12410 auxin-responsive family protein: 1.02
  Fold-change AT4G14130 xyloglucan:xyloglucosyl transferase: 0.85
  Fold-change AT4G15975 zinc finger (C3HC4-type RING finger) family protein: 1.10
  Fold-change AT4G16146 expressed protein: 0.82
